Measurements published in patent US20080234351A1, “Combination Methods for Preserving Visual Acuity” (priority 2005, published 2008).

Test system: patients with type 1 or type 2 diabetes mellitus and moderately severe to very severe NPDR
Experiment: Clinical Study MBCM(b): Phase 3, randomized, double-masked, placebo-controlled study; frequency of sustained moderate visual loss (SMVL)
Assay type: in vivo, humans
Details: 32 mg/d orally, SMVL = ≧15 letters loss in best-corrected ETDRS visual acuity for 6-month period (30 to 36 months)
From the text: MBCM(b) is a Phase 3, multicenter, parallel, randomized, double-masked, placebo-controlled study. Language from the MBCM(b) protocol is included below.
Patients with type 1 or type 2 diabetes mellitus and an Early Treatment Diabetic Retinopathy Study (ETDRS) retinopathy level ≧47A and ≦53E in at least one eye will be eligible to participate in the study. Visual acuity (best-corrected) will be assessed using the ETDRS visual acuity protocol. Retinopathy will be assessed using ETDRS 7 standard field 30 degree color stereoscopic fundus photography. The photographs will be independently assessed by the University of Wisconsin Fundus Photograph Reading Center.
Seventy sites have enrolled patients over a 15-month period. Of the 685 patients enrolled, it is expected that approximately 580 patients will complete the study. […]
Patients may be included in the study only if they meet all of the following general criteria and have at least one eye that meets all of the eye-specific criteria: • [1] […] ETDRS retinopathy level ≧47A and ≦53E without previous panretinal photocoagulation as determined using ETDRS 7 standard field 30-degree color stereoscopic fundus photography. • [3] […] Best-corrected visual acuity score of 45 or more letters as measured using the ETDRS visual acuity protocol (ETDRS Study report number 1, Arch. Opthalmol., 103:1796-1806, 1985) in an eye that has level ≧47A and ≦53E retinopathy. […]

CN(C)C[C@@H]1CCn2cc(c3ccccc32)C2=C(C(=O)NC2=O)c2cn(c3ccccc23)CCO1 [RBX, (S)-9-((dimethylamino)methyl)-6,7,10,11-tetrahydro-9H,18H-5,21:12,17-dimethenodibenzo(e,k)pyrrolo(3,4-h)(1,4,13)oxadiazacyclohexadecine-18,20(19H)-dione]
% Of Patients with SMVL, Focal PC (patients with focal photocoagulation): 8.6%
% Of Patients with SMVL, No Focal PC (patients without focal photocoagulation): 2.7%
